The results in this text go back to ChEMBL document CHEMBL1201862, “PubChem BioAssay data set” (2004).

Among the test systems are RPMI-8226; IGROV-1; DLD-1; OVCAR-4; K562; SNB-19; NCI-H522; SK-MEL-5; SK-OV-3; HT-29; SK-MEL-2; HCT-15; SF-539; OVCAR-3; COLO 205; A498; M19-MEL; BT-549; MDA-N; MDA-MB-435.
Holding throughout (assay): growth of human tumour cells (NCI), 48 h

SMILES strings stand for the structures.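 Compound exposure: 48 hours, 5 concentrations, 96-well plates. GI50 marks 50% less growth.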 The source made the active and inactive calls. Cut-off read from the data, not from the text of the source: active = GI50 up to about 1.1 µM and inactive = higher. A value given as a limit tells only on which side of the number the result lay.

In the case of `O=C(CC(=O)c1ccc([N+](=O)[O-])cc1)C(=O)Nc1nccs1`, the GI50 with RPMI-8226, with IGROV-1, in the test with DLD-1, in the test on OVCAR-4, in the test with K562 and in the test with SNB-19 was > 100 µM (inactive) in each case. For the same compound, the GI50 is > 100 µM (inactive) with NCI-H522; > 100 µM (inactive) in the test with SK-MEL-5; > 100 µM (inactive) in the test on SK-OV-3; > 100 µM (inactive) with HT-29; > 100 µM (inactive) with SK-MEL-2; more than 100 µM with HCT-15. The GI50 in the test with SF-539 and in the test on OVCAR-3 was > 100 µM (inactive) each time.
As for `COc1cc(OC)c([C@@H]2OC(=O)C3C2C(=O)O[C@H]3c2cc(OC)c(OC)cc2OC)cc1OC` (some centres undefined), the GI50 is > 100 µM (inactive) with RPMI-8226; > 10 µM (inactive) in the test with IGROV-1; > 100 µM (inactive) in the test on DLD-1; > 100 µM (inactive) in the test with COLO 205; 45.4 µM (inactive) in the test on OVCAR-4; > 100 µM (inactive) in the test with K562. The GI50 is > 100 µM (inactive) in the test with SNB-19; > 100 µM (inactive) with SK-OV-3; > 100 µM (inactive) in the test on HT-29; > 100 µM (inactive) in the test with SK-MEL-2; more than 100 µM with HCT-15; > 100 µM (inactive) in the test with SF-539. Moreover, the GI50 was > 100 µM (inactive) in the test on OVCAR-3, > 100 µM (inactive) in the test with A498 and 70.1 µM (inactive) in the test with M19-MEL.
As for `COC(=O)/C(=N/NC(C)(C)C)C(C(=O)OC)C(=O)C(=O)Nc1nc2ccc([N+](=O)[O-])cc2s1` (centres undefined), the GI50 with RPMI-8226, in the test on IGROV-1, with COLO 205, in the test with OVCAR-4, in the test on K562 and in the test with SNB-19 was > 100 µM (inactive) throughout. Besides, the GI50 with NCI-H522 was > 100 µM (inactive); with SK-MEL-5, > 100 µM (inactive); with SK-OV-3, > 100 µM (inactive); with HT-29, > 100 µM (inactive); with SK-MEL-2 it was > 100 µM (inactive); in the test with HCT-15, more than 100 µM. Also, the GI50 in the test on SF-539 was > 100 µM (inactive); with OVCAR-3, > 100 µM (inactive); in the test with A498 it was 23.6 µM (inactive); in the test with M19-MEL it was > 100 µM (inactive).
As for `C/C(=N\Nc1ccccc1)C(CN(C)C)C(c1ccccc1)c1c(O)c2ccccc2oc1=O` (centres undefined), the GI50 in the test on RPMI-8226 is > 66.7 µM (inactive); in the test with BT-549, > 100 µM (inactive); in the test on IGROV-1, > 100 µM (inactive); with COLO 205, > 68.9 µM (inactive); with OVCAR-4 it was > 100 µM (inactive); with K562, > 100 µM (inactive). For the same compound, the GI50 in the test on SNB-19, with NCI-H522, in the test with MDA-N, in the test on SK-MEL-5, in the test on MDA-MB-435 and in the test with SK-OV-3 was > 100 µM (inactive) each time. In addition, the GI50 in the test with HT-29 is > 100 µM (inactive); with SK-MEL-2, > 100 µM (inactive); in the test with HCT-15 it was more than 100 µM; in the test on SF-539 it was > 100 µM (inactive); in the test with OVCAR-3, > 100 µM (inactive); with A498, > 100 µM (inactive). In addition, in the test with M19-MEL, the GI50 was > 100 µM (inactive).
Take `COc1cc2ccc1-c1cc(ccc1O)CC1c3cc4c(cc3CCN1C)Oc1c(OC)cc3c(c1O4)C(C2)N(C)CC3` (centres undefined): the GI50 is 1.91 µM (inactive) in the test with RPMI-8226; 2.17 µM (inactive) in the test on IGROV-1; 2.28 µM (inactive) in the test with DLD-1; 1.96 µM (inactive) in the test on OVCAR-4; 1.44 µM (inactive) with K562; 1.98 µM (inactive) with SNB-19. Also, the GI50 with NCI-H522 was 1.75 µM (inactive); in the test with SK-MEL-5, 2.08 µM (inactive); in the test with HT-29, 1.73 µM (inactive); in the test on SK-MEL-2 it was 1.79 µM (inactive); in the test on HCT-15, 1.68 µM; with SF-539, 1.79 µM (inactive). Besides, the results for the GI50 in the test with OVCAR-3, with A498 and in the test with M19-MEL were 1.95 µM (inactive), 2.19 µM (inactive) and 1.88 µM (inactive), respectively.
For `N#CC(c1nc2ccccc2nc1Cl)S(=O)(=O)c1ccccc1` (centres undefined), the GI50 in the test with RPMI-8226 was 37.2 µM (inactive); in the test with DLD-1, > 100 µM (inactive); with COLO 205, > 100 µM (inactive); with OVCAR-4, 53.3 µM (inactive); in the test on K562, 34.3 µM (inactive); in the test on SNB-19, > 100 µM (inactive). Also, the GI50 in the test on NCI-H522 was 30.7 µM (inactive); with SK-MEL-5 it was > 100 µM (inactive); in the test on SK-MEL-2, 97.1 µM (inactive); in the test with HCT-15, 54.1 µM; in the test with SF-539 it was > 100 µM (inactive); with OVCAR-3, > 100 µM (inactive). For the same compound, the GI50 in the test with A498 and in the test with M19-MEL was > 100 µM (inactive) in each case.
Regarding `O=c1[nH]cnc2[nH]nnc12`, the GI50 with RPMI-8226 is 0.685 µM (active); with IGROV-1, 16 µM (inactive); in the test on COLO 205, 47.1 µM (inactive); in the test on OVCAR-4, 4.93 µM (inactive); with K562, 0.593 µM (active); with SNB-19, 88.5 µM (inactive). The GI50 was 9.51 µM (inactive) with NCI-H522; 41.5 µM (inactive) in the test with SK-MEL-5; 4.31 µM (inactive) in the test on SK-OV-3; 7.96 µM (inactive) with HT-29; 0.386 µM (active) in the test on SK-MEL-2; 11.6 µM with HCT-15. Besides, the GI50 in the test with SF-539 is 3.85 µM (inactive); in the test with OVCAR-3, 14 µM (inactive); in the test on A498, 57 µM (inactive); in the test on M19-MEL, 4.02 µM (inactive).
Turning to `COC(=O)CC(C(C(=O)OCc1ccccc1)C(C)O)N1C(=O)OCC1c1ccccc1` (centres undefined), the GI50 was 27.6 µM (inactive) in the test on RPMI-8226; 69.3 µM (inactive) in the test with IGROV-1; 60.4 µM (inactive) in the test with DLD-1; 48.4 µM (inactive) with COLO 205; 84.1 µM (inactive) with OVCAR-4; 34.4 µM (inactive) in the test on K562. The GI50 with SNB-19 was 75.2 µM (inactive); in the test on SK-MEL-5, 42.3 µM (inactive); in the test on HT-29, > 100 µM (inactive); with SK-MEL-2 it was > 100 µM (inactive); in the test with HCT-15, more than 100 µM; in the test on SF-539, > 100 µM (inactive). For the same compound, the figures for the GI50 in the test on OVCAR-3, in the test on A498 and in the test with M19-MEL were 93.5 µM (inactive), 22.2 µM (inactive) and 69.2 µM (inactive), respectively.
As to `CN(C)CCC1(C2=CCCC2)CC/C(=C\c2ccccc2Cl)C1=O` (centres undefined), the GI50 in the test with RPMI-8226 is 18.3 µM (inactive); in the test with IGROV-1 it was 19.8 µM (inactive); in the test with DLD-1 it was 15.2 µM (inactive); with COLO 205, 16.2 µM (inactive); in the test on OVCAR-4, 11.9 µM (inactive); with K562 it was 3.75 µM (inactive). Also, the GI50 with SNB-19 is 14.3 µM (inactive); in the test with SK-MEL-5, 12.8 µM (inactive); in the test with HT-29, 6.44 µM (inactive); in the test with SK-MEL-2, 13.5 µM (inactive); in the test on HCT-15 it was 5.85 µM; in the test with SF-539, 15.2 µM (inactive). In addition, the figures for the GI50 with OVCAR-3, with A498 and in the test with M19-MEL were 14.3 µM (inactive), 14.1 µM (inactive) and 33 µM (inactive), respectively.
